Consider 27 molecules from US7511145B2 (Genelabs Technologies, Inc., priority 2003, dated 2009).

The assay has as its target T1, HCV-NS5b (Hepatitis C virus genotype 1b, UniProt Q9WMX2).
T1 construct: (His)6 (C); made in house; host or cells: XL-1 cells (E. coli), IPTG-inducible plasmid, nickel-NTA purification
Description: HCV-NS5b enzyme assay (incorporation of radiolabeled UTP). The assay is classed as biochemical. Particulars: for inhibition at 33 µM: enzyme inhibition at compound concentration of 33 uM; for inhibition at 100 µM: read-out: % inh@100, enzyme inhibition at compound concentration of 100 uM. Put shortly: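 Percent inhibition, background-corrected against uninhibited control, was measured at 100 and 33 uM compound. Incorporation of [3H]-UTP (10 μM each NTP) into biotinylated HCV-template RNA, 37° C for 2 h, pH 7.5, scintillation proximity. Enzyme: C-terminally truncated (21 aa), His6-tagged NS5b from XL-1.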

Turning to `O=C(O)c1ccc2c(c1)nc(-c1ccc3nc(-c4ccnc5ccccc45)ccc3c1)n2C1CCCCC1` [Compound 423, 2-[2,4′]biquinolinyl-6-yl-1-cyclohexyl-1H-benzoimidazole-5-carboxylic acid], the inhibition at 33 µM is 102% and the inhibition at 100 µM amounted to 102%.
For the molecule `O=C(O)c1ccc2c(c1)nc(-c1ccc3nc(-c4ccccc4Br)c(-c4ccccc4)cc3c1)n2C1CCCCC1` [Compound 424, 2-[2-(2-Bromo-phenyl)-3-phenyl-quinolin-6-yl]-1-cyclohexyl-1H-benzoimidazole-5-carboxylic acid], the inhibition at 33 µM was determined as 98.7% and the inhibition at 100 µM was 99.1%.
With `COc1cccc(-c2nc3ccc(-c4nc5cc(C(=O)O)ccc5n4C4CCCCC4)cc3nc2-c2cccc(OC)c2)c1` [Compound 425, 2-[2,3-Bis-(3-methoxyphenyl)quinoxalin-6-yl]-1-cyclohexyl-1H-benzimidazole-5-carboxylic acid], the inhibition at 33 µM came out at 96.2% and the inhibition at 100 µM worked out at 98.2%.
Turning to `Cc1nc(C)c(-c2ccc3cc(-c4nc5cc(C(=O)O)ccc5n4C4CCCCC4)ccc3n2)s1` [Compound 426, 1-cyclohexyl-2-[2-(2,4-dimethyl-thiazol-5-yl)-quinolin-6-yl]-1H-benzoimidazole-5-carboxylic acid], the inhibition at 33 µM is 96.6% and the inhibition at 100 µM was found to be 102%.
In the case of `O=C(O)c1ccc2c(c1)nc(-c1ccc3nc(-c4ccccn4)ccc3c1)n2C1CCCCC1` [Compound 427, 1-cyclohexyl-2-(2-pyridin-2-yl-quinolin-6-yl)-1H-benzoimidazole-5-carboxylic acid], the inhibition at 33 µM came to 93.8% and the inhibition at 100 µM was 98.4%.
For the molecule `O=C(O)c1ccc2c(c1)nc(-c1ccc3nc(-c4ccc(Oc5ccccc5)cc4)ccc3c1)n2C1CCCCC1` [Compound 428, 1-cyclohexyl-2-[2-(4-phenoxy-phenyl)-quinolin-6-yl]-1H-benzoimidazole-5-carboxylic acid], the inhibition at 33 µM worked out at 98.8% and the inhibition at 100 µM turned out to be 99.6%.
As for `O=C(O)c1ccc2c(c1)nc(-c1ccc3nc(-c4ccc(N5CCOCC5)cc4)ccc3c1)n2C1CCCCC1` [Compound 429, 1-cyclohexyl-2-[2-(4-morpholin-4-yl-phenyl)-quinolin-6-yl]-1H-benzoimidazole-5-carboxylic acid], the inhibition at 33 µM amounted to 96.2% and the inhibition at 100 µM was 101%.
As to `O=C(O)c1ccc2c(c1)nc(-c1ccc3nc(-c4cc(OCCCN5CCCC5)ccc4-c4ccccc4)ccc3c1)n2C1CCCCC1` [Compound 430, 1-Cyclohexyl-2-{2-[4-(3-pyrrolidin-1-yl-propoxy)-biphen-2-yl]-quinolin-6-yl}-1H-benzoimidazole-5-carboxylic acid], the inhibition at 33 µM worked out at 98% and the inhibition at 100 µM amounted to 96.7%.
Consider `O=C(O)c1ccc2c(c1)nc(-c1ccc3nc(-c4cn(-c5cccnc5Cl)c(=O)[nH]c4=O)ccc3c1)n2C1CCCCC1` [Compound 431, 2-{2-[1-(2-chloro-pyridin-3-yl)-2,4-dioxo-1,2,3,4-tetrahydro-pyrimidin-5-yl]-quinolin-6-yl}-1-cyclohexyl-1H-benzoimidazole-5-carboxylic acid], for which the inhibition at 33 µM was found to be 95.3% and the inhibition at 100 µM turned out to be 96.4%.
For the molecule `O=C(O)c1ccc2c(c1)nc(-c1ccc3nc(-c4cc[nH]c4)ccc3c1)n2C1CCCCC1` [Compound 432, 1-cyclohexyl-2-[2-(1H-pyrrol-3-yl)-quinolin-6-yl]-1H-benzoimidazole-5-carboxylic acid], the inhibition at 33 µM stood at 88.9% and the inhibition at 100 µM came out at 96.4%.
Take `O=C(O)c1ccc2c(c1)nc(-c1ccc3nc(-c4ccccc4)cc(Nc4ccccc4)c3c1)n2C1CCCCC1` [Compound 433, 1-cyclohexyl-2-(2-phenyl-4-phenylamino-quinolin-6-yl)-1H-benzoimidazole-5-carboxylic acid]: the inhibition at 33 µM stood at 92.5% and the inhibition at 100 µM was 100%.
`COc1cccc(O)c1-c1ccc2cc(-c3nc4cc(C(=O)O)ccc4n3C3CCCCC3)ccc2n1` [Compound 434, 1-cyclohexyl-2-[2-(2-hydroxy-6-methoxy-phenyl)-quinolin-6-yl]-1H-benzoimidazole-5-carboxylic acid]: the inhibition at 33 µM was 105% and the inhibition at 100 µM amounted to 102%.
For `O=C(O)c1ccc2c(c1)nc(-c1ccc3nc(-c4cc(C(=O)N5CCCC5)ccc4-c4ccc([N+](=O)[O-])cc4)ccc3c1)n2C1CCCCC1` [Compound 435, 1-cyclohexyl-2-{2-[4′-nitro-4-(pyrrolidine-1-carbonyl)biphen-2-yl]quinolin-6-yl}-1H-benzimidazole-5-carboxylic acid], in that order: 102% and 101%.
As to `COc1ccc(-c2ccc(C(F)(F)F)cc2)c(-c2ccc3cc(-c4nc5cc(C(=O)O)ccc5n4C4CCCCC4)ccc3n2)c1` [Compound 436, 1-cyclohexyl-2-[2-(4-methoxy-4′-trifluoromethyl-biphen-2-yl)-quinolin-6-yl]-1H-benzoimidazole-5-carboxylic acid], the inhibition at 33 µM stood at 98.8% and the inhibition at 100 µM was 99.3%.
`COc1ccc(-c2cccc(C(=O)O)c2)c(-c2ccc3cc(-c4nc5cc(C(=O)O)ccc5n4C4CCCCC4)ccc3n2)c1` [Compound 437, 2-[2-(3′-carboxy-4-methoxy-biphen-2-yl)-quinolin-6-yl]-1-cyclohexyl-1H-benzoimidazole-5-carboxylic acid]: the inhibition at 33 µM came to 100% and the inhibition at 100 µM was determined as 101%.
For the molecule `COc1ccc(-c2ccc(C)cc2)c(-c2ccc3cc(-c4nc5cc(C(=O)O)ccc5n4C4CCCCC4)ccc3n2)c1` [Compound 438, 1-cyclohexyl-2-[2-(4-methoxy-4′-methyl-biphen-2-yl)-quinolin-6-yl]-1H-benzoimidazole-5-carboxylic acid], the inhibition at 33 µM came to 98.7% and the inhibition at 100 µM stood at 99.6%.
Take `O=C(O)c1ccc2c(c1)nc(-c1ccc3nc(-c4cc([N+](=O)[O-])ccc4-c4ccc(Cl)cc4)ccc3c1)n2C1CCCCC1` [Compound 439, 2-[2-(4′-chloro-4-nitro-biphen-2-yl)-quinolin-6-yl]-1-cyclohexyl-1H-benzoimidazole-5-carboxylic acid]: the inhibition at 33 µM came out at 99.2% and the inhibition at 100 µM came to 97%.
For `O=C(O)c1ccc2c(c1)nc(-c1ccc3nc(-c4ccccc4-c4ccc(Cl)cc4)c(-c4ccccc4)cc3c1)n2C1CCCCC1` [Compound 440, 2-[2-(4′-Chloro-biphen-2-yl)-3-phenyl-quinolin-6-yl]-1-cyclohexyl-1H-benzoimidazole-5-carboxylic acid], the inhibition at 33 µM came to 99.2% and the inhibition at 100 µM was found to be 97.8%.
On to `COc1ccc(-c2nc3ccc(-c4nc5cc(C(=O)O)ccc5n4C4CCCCC4)cc3nc2-c2ccc(OC)cc2)cc1` [Compound 441, 2-[2,3-Bis-(4-methoxyphenyl)quinoxalin-6-yl]-1-cyclohexyl-1H-benzimidazole-5-carboxylic acid], for which the inhibition at 33 µM came to 97.3% and the inhibition at 100 µM is 98.8%.
Regarding `O=C(O)c1ccc2c(c1)nc(-c1ccc3nc(-c4cnccn4)ccc3c1)n2C1CCCCC1` [Compound 442, 1-cyclohexyl-2-(2-pyrazin-2-yl-quinolin-6-yl)-1H-benzoimidazole-5-carboxylic acid], the inhibition at 33 µM came to 92.5% and the inhibition at 100 µM came to 98.2%.
As to `O=C(O)c1ccc2c(c1)nc(-c1ccc3nc(-c4ccncc4)ccc3c1)n2C1CCCCC1` [Compound 443, 1-cyclohexyl-2-(2-pyridin-4-yl-quinolin-6-yl)-1H-benzoimidazole-5-carboxylic acid], the inhibition at 33 µM stood at 87% and the inhibition at 100 µM was determined as 98.7%.
On to `Cc1ccc2cc(-c3ccc4cc(-c5nc6cc(C(=O)O)ccc6n5C5CCCCC5)ccc4n3)ccc2c1` [Compound 444, 1-cyclohexyl-2-[2-(6-methyl-naphthalen-2-yl)-quinolin-6-yl]-1H-benzoimidazole-5-carboxylic acid], for which the inhibition at 33 µM came to 99.5% and the inhibition at 100 µM was 101%.
For the molecule `COCCOc1cccc(-c2ccc3cc(-c4nc5cc(C(=O)O)ccc5n4C4CCCCC4)ccc3n2)c1` [Compound 445, 1-Cyclohexyl-2-{2-[3-(2-methoxy-ethoxy)-phenyl]-quinolin-6-yl}-1H-benzoimidazole-5-carboxylic acid], the inhibition at 33 µM worked out at 96.9% and the inhibition at 100 µM worked out at 99.6%.
For `O=C(O)c1ccc2c(c1)nc(-c1ccc3nc(-c4ccccc4[N+](=O)[O-])ccc3c1)n2C1CCCCC1` [Compound 446], in that order: 96.6% and 101%.
For the molecule `O=C(O)c1ccc2c(c1)nc(-c1ccc3nc(-c4cc(OCCCN5CCCC5)ccc4-c4ccc(Cl)cc4)ccc3c1)n2C1CCCCC1` [Compound 447, 2-{2-[4′-Chloro-4-(3-pyrrolidin-1-yl-propoxy)-biphen-2-yl]-quinolin-6-yl}-1-cyclohexyl-1H-benzoimidazole-5-carboxylic acid], the inhibition at 33 µM worked out at 97.8% and the inhibition at 100 µM came out at 94.9%.
As for `Cc1oc2ccc(OCc3ccccc3)cc2c1-c1ccc2cc(-c3nc4cc(C(=O)O)ccc4n3C3CCCCC3)ccc2n1` [Compound 448, 2-[2-(5-benzyloxy-2-methyl-benzofuran-3-yl)-quinolin-6-yl]-1-cyclohexyl-1H-benzoimidazole-5-carboxylic acid], the inhibition at 33 µM was 94.6% and the inhibition at 100 µM stood at 96%.
The matching figures for `O=C(O)c1ccc2c(c1)nc(-c1ccc3nc(-c4cnn(-c5ccccc5)c4)ccc3c1)n2C1CCCCC1` [Compound 449, 1-cyclohexyl-2-[2-(1-phenyl-1H-pyrazol-4-yl)-quinolin-6-yl]-1H-benzoimidazole-5-carboxylic acid]: 99.8% and 101%.
